The source made the active and inactive calls.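 How the source made its calls: active means inhibition of at least 50% in a panel; inactive means the rest.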
How the values were obtained:
Experiment in all cases: off-target binding across receptors and transporters, profiling panel, selectivity assay for STAT3/NF-kB dual inhibitor project, cell-based, radioligand binding, single concentration (AID 624355)
[1] = tested on: Opiate (OP3, MOP); conditions: Ricerca radioligand binding panel, at 10 µM, stronger effect = higher value
[2] = tested on: Serotonin (5-Hydroxytryptamine) 5-HT3; conditions: Ricerca radioligand binding panel, at 10 µM, stronger effect = higher value
[3] = target: Neuropeptide Y receptor type 1 (Homo sapiens) (UniProt P25929); conditions: Ricerca radioligand binding panel, Neuropeptide Y Y1, at 10 µM, stronger effect = higher value
[4] = tested on: Adenosine A3; conditions: Ricerca radioligand binding panel, at 10 µM, stronger effect = higher value
[5] = tested on: Adenosine A2A; conditions: Ricerca radioligand binding panel, at 10 µM, stronger effect = higher value
[6] = tested on: Phorbol Ester; conditions: Ricerca radioligand binding panel, at 10 µM, stronger effect = higher value
[7] = target: Muscarinic acetylcholine receptor M2 (Homo sapiens) (UniProt P08172); conditions: Ricerca radioligand binding panel, at 10 µM, stronger effect = higher value
[8] = tested on: Androgen (Testosterone) AR; conditions: Ricerca radioligand binding panel, at 10 µM, stronger effect = higher value
[9] = tested on: Dopamine D4.2; conditions: Ricerca radioligand binding panel, at 10 µM, stronger effect = higher value
[10] = tested on: GABAB1A; conditions: Ricerca radioligand binding panel, at 10 µM, stronger effect = higher value
[11] = target: Kappa-type opioid receptor (Homo sapiens) (UniProt P41145); conditions: Ricerca radioligand binding panel, Opiate (OP2, KOP), at 10 µM, stronger effect = higher value
Sequence of Kappa-type opioid receptor (Homo sapiens) (P41145 whole entry, looked up): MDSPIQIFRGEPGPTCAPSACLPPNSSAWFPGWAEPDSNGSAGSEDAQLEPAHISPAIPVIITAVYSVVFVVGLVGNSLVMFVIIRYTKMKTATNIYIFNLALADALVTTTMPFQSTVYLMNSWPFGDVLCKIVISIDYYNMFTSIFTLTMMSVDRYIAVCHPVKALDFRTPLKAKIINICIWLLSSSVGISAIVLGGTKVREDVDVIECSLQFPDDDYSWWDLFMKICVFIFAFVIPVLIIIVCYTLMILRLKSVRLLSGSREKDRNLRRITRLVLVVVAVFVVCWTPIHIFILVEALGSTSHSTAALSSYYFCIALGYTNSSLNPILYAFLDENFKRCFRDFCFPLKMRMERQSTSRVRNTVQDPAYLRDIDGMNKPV

[12] = tested on: Adrenergic a1B; conditions: Ricerca radioligand binding panel, at 10 µM, stronger effect = higher value
[13] = tested on: Cannabinoid CB1; conditions: Ricerca radioligand binding panel, at 10 µM, stronger effect = higher value
[14] = tested on: Calcium Channel N-Type; conditions: Ricerca radioligand binding panel, at 10 µM, stronger effect = higher value
[15] = tested on: Adrenergic B1; conditions: Ricerca radioligand binding panel, at 10 µM, stronger effect = higher value
[16] = tested on: Histamine H2; conditions: Ricerca radioligand binding panel, at 10 µM, stronger effect = higher value
[17] = tested on: Endothelin ETB; conditions: Ricerca radioligand binding panel, at 10 µM, stronger effect = higher value
[18] = tested on: Sigma1; conditions: Ricerca radioligand binding panel, at 10 µM, stronger effect = higher value
[19] = tested on: Glutamate, Kainate; conditions: Ricerca radioligand binding panel, at 10 µM, stronger effect = higher value
[20] = tested on: Histamine H1; conditions: Ricerca radioligand binding panel, at 10 µM, stronger effect = higher value
[21] = tested on: GABAA, Flunitrazepam, Central; conditions: Ricerca radioligand binding panel, Flunitrazepam site, at 10 µM, stronger effect = higher value
[22] = tested on: Adenosine A1; conditions: Ricerca radioligand binding panel, at 10 µM, stronger effect = higher value
[23] = target: D(3) dopamine receptor (Homo sapiens) (UniProt P35462); conditions: Ricerca radioligand binding panel, Dopamine D3, at 10 µM, stronger effect = higher value
Sequence of D(3) dopamine receptor (Homo sapiens) (P35462 whole entry, looked up): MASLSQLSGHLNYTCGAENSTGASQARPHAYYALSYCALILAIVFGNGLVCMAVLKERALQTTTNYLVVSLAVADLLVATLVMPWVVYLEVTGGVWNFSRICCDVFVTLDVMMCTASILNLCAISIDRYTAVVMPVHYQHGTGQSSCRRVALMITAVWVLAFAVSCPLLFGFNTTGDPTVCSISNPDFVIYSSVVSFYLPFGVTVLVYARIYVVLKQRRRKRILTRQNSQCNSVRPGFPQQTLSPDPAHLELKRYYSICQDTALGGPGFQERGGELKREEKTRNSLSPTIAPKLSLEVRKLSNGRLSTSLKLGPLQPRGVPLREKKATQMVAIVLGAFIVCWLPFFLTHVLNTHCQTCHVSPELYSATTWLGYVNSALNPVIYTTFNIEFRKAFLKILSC

[24] = tested on: Endothelin ETA; conditions: Ricerca radioligand binding panel, at 10 µM, stronger effect = higher value
[25] = tested on: GABAA, Muscimol, Central; conditions: Ricerca radioligand binding panel, Muscimol site, at 10 µM, stronger effect = higher value
[26] = tested on: Interleukin IL-1; conditions: Ricerca radioligand binding panel, at 10 µM, stronger effect = higher value
[27] = target: Platelet-activating factor receptor (Homo sapiens) (UniProt P25105); conditions: Ricerca radioligand binding panel, Platelet Activating Factor (PAF), at 10 µM, stronger effect = higher value
Sequence of Platelet-activating factor receptor (Homo sapiens) (P25105 whole entry, looked up): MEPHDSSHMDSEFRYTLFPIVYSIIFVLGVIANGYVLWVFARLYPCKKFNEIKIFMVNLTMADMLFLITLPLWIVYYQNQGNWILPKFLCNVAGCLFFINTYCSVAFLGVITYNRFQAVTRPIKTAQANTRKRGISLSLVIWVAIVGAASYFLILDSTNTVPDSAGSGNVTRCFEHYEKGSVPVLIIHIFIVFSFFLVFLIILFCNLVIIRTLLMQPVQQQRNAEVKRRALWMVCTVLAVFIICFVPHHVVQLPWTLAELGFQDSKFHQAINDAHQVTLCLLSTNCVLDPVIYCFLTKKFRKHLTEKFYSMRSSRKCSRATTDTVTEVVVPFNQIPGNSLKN

[28] = tested on: Thyroid Hormone; conditions: Ricerca radioligand binding panel, at 10 µM, stronger effect = higher value
[29] = tested on: Imidazoline I2, Central; conditions: Ricerca radioligand binding panel, at 10 µM, stronger effect = higher value
[30] = tested on: Bradykinin B2; conditions: Ricerca radioligand binding panel, at 10 µM, stronger effect = higher value
[31] = tested on: Transporter, Dopamine (DAT); conditions: Ricerca radioligand binding panel, at 10 µM, stronger effect = higher value
[32] = target: Muscarinic acetylcholine receptor M3 (Homo sapiens) (UniProt P20309); conditions: Ricerca radioligand binding panel, at 10 µM, stronger effect = higher value
[33] = tested on: Rolipram; conditions: Ricerca radioligand binding panel, at 10 µM, stronger effect = higher value
[34] = tested on: Purinergic P2Y; conditions: Ricerca radioligand binding panel, at 10 µM, stronger effect = higher value
[35] = tested on: Adrenergic a1D; conditions: Ricerca radioligand binding panel, at 10 µM, stronger effect = higher value
[36] = tested on: Prostanoid EP4; conditions: Ricerca radioligand binding panel, at 10 µM, stronger effect = higher value
[37] = target: Muscarinic acetylcholine receptor M1 (Homo sapiens) (UniProt P11229); conditions: Ricerca radioligand binding panel, at 10 µM, stronger effect = higher value
Sequence of Muscarinic acetylcholine receptor M1 (Homo sapiens) (P11229 whole entry, looked up): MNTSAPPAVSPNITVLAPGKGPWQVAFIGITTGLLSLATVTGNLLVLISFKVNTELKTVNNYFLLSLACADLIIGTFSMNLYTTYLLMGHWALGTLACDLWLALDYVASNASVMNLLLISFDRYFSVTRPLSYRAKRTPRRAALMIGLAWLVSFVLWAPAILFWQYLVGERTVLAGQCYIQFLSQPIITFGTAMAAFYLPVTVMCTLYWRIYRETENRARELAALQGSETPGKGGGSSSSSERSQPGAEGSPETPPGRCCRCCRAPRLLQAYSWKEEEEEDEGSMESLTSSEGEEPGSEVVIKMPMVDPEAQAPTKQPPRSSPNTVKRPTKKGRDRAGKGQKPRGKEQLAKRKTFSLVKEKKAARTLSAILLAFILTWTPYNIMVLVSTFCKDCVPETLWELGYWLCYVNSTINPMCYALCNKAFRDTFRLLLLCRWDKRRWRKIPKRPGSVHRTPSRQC

[38] = tested on: Histamine H3; conditions: Ricerca radioligand binding panel, at 10 µM, stronger effect = higher value
[39] = tested on: Transporter, GABA; conditions: Ricerca radioligand binding panel, at 10 µM, stronger effect = higher value
[40] = tested on: Voltage-dependent L-type calcium channel subunit beta-4 (Rattus norvegicus) + Pro-epidermal growth factor (Homo sapiens) + Estrogen receptor (Homo sapiens) + Glucocorticoid receptor (Homo sapiens) + 5-hydroxytryptamine receptor 1A (Homo sapiens) + Alpha-2A adrenergic receptor (Homo sapiens) + Adenosine receptor A3 (Homo sapiens) + Androgen receptor (Homo sapiens) + Muscarinic acetylcholine receptor M1 (Homo sapiens) + D(4) dopamine receptor (Homo sapiens) + Alpha-2A adrenergic receptor (Rattus norvegicus) + Sodium- and chloride-dependent GABA transporter 1 (Rattus norvegicus) + Endothelin receptor type B (Homo sapiens) + Histamine H2 receptor (Homo sapiens) + Endothelin-1 receptor (Homo sapiens) + Neuropeptide Y receptor type 1 (Homo sapiens) + B2 bradykinin receptor (Homo sapiens) + Sodium-dependent serotonin transporter (Homo sapiens) + Histamine H1 receptor (Homo sapiens) + Mu-type opioid receptor (Homo sapiens) + D(3) dopamine receptor (Homo sapiens) + Delta-type opioid receptor (Homo sapiens) + Kappa-type opioid receptor (Homo sapiens) + Glutamate receptor ionotropic, kainate 3 (Rattus norvegicus) + 5-hydroxytryptamine receptor 3A (Homo sapiens) + Melatonin receptor type 1A (Homo sapiens) + Neuropeptide Y receptor type 2 (Homo sapiens) + P2Y purinoceptor 1 (Rattus norvegicus) + Thyroid hormone receptor alpha (Rattus norvegicus) + Glutamate receptor ionotropic, NMDA 2B (Rattus norvegicus) + Sodium-dependent dopamine transporter (Homo sapiens) + Protein kinase C zeta type …; conditions: Ricerca radioligand binding panel, at 10 µM, stronger effect = higher value
[41] = tested on: Purinergic P2X; conditions: Ricerca radioligand binding panel, at 10 µM, stronger effect = higher value
[42] = target: Beta-2 adrenergic receptor (Homo sapiens) (UniProt P07550); conditions: Ricerca radioligand binding panel, Adrenergic B2, at 10 µM, stronger effect = higher value
[43] = target: Alpha-2A adrenergic receptor (Homo sapiens) (UniProt P08913); conditions: Ricerca radioligand binding panel, Adrenergic a2A, at 10 µM, stronger effect = higher value
[44] = tested on: Calcium Channel L-Type, Dihydropyridine; conditions: Ricerca radioligand binding panel, Dihydropyridine site, at 10 µM, stronger effect = higher value
[45] = tested on: Glutamate, NMDA, Phencyclidine; conditions: Ricerca radioligand binding panel, Phencyclidine site, at 10 µM, stronger effect = higher value
[46] = tested on: Epidermal Growth Factor (EGF); conditions: Ricerca radioligand binding panel, at 10 µM, stronger effect = higher value
[47] = tested on: Transporter, Serotonin (5-Hydroxytryptamine); conditions: Ricerca radioligand binding panel, at 10 µM, stronger effect = higher value
[48] = target: Voltage-gated inwardly rectifying potassium channel KCNH2 (Homo sapiens) (UniProt Q12809); conditions: Ricerca radioligand binding panel, Potassium Channel hERG, at 10 µM, stronger effect = higher value
[49] = target: D(1A) dopamine receptor (Homo sapiens) (UniProt P21728); conditions: Ricerca radioligand binding panel, Dopamine D1, at 10 µM, stronger effect = higher value
Sequence of D(1A) dopamine receptor (Homo sapiens) (P21728 whole entry, looked up): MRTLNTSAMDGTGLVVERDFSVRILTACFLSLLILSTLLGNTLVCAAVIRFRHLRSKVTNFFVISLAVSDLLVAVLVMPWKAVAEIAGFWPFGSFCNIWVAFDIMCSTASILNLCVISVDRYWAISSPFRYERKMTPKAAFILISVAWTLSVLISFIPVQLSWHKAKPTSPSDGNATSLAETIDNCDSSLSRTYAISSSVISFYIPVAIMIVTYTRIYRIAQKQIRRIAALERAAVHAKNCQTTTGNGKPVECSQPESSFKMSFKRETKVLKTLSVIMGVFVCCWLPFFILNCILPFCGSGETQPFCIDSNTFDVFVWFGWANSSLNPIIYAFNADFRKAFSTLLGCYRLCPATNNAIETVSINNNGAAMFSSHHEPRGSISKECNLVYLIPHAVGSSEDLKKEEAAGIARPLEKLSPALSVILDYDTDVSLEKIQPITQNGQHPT

[50] = tested on: Potassium Channel KATP; conditions: Ricerca radioligand binding panel, at 10 µM, stronger effect = higher value
[51] = target: Delta-type opioid receptor (Homo sapiens) (UniProt P41143); conditions: Ricerca radioligand binding panel, Opiate (OP1, DOP), at 10 µM, stronger effect = higher value
Sequence of Delta-type opioid receptor (Homo sapiens) (P41143 whole entry, looked up): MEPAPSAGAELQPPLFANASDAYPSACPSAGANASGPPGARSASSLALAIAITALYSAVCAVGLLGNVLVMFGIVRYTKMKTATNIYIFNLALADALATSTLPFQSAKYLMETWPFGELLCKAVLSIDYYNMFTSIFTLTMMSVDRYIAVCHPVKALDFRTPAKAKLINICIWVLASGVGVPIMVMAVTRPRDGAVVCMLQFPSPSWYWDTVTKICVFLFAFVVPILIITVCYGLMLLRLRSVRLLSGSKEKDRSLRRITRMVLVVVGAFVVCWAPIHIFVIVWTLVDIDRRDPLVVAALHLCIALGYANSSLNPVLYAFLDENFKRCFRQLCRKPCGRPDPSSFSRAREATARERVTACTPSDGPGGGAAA

[52] = tested on: Dopamine D2S; conditions: Ricerca radioligand binding panel, at 10 µM, stronger effect = higher value
[53] = tested on: Leukotriene, Cysteinyl CysLT1; conditions: Ricerca radioligand binding panel, at 10 µM, stronger effect = higher value
[54] = tested on: Nicotinic Acetylcholine; conditions: Ricerca radioligand binding panel, at 10 µM, stronger effect = higher value
[55] = target: Estrogen receptor (Homo sapiens) (UniProt P03372); conditions: Ricerca radioligand binding panel, Estrogen Era, at 10 µM, stronger effect = higher value
Sequence of Estrogen receptor (Homo sapiens) (P03372 whole entry, looked up): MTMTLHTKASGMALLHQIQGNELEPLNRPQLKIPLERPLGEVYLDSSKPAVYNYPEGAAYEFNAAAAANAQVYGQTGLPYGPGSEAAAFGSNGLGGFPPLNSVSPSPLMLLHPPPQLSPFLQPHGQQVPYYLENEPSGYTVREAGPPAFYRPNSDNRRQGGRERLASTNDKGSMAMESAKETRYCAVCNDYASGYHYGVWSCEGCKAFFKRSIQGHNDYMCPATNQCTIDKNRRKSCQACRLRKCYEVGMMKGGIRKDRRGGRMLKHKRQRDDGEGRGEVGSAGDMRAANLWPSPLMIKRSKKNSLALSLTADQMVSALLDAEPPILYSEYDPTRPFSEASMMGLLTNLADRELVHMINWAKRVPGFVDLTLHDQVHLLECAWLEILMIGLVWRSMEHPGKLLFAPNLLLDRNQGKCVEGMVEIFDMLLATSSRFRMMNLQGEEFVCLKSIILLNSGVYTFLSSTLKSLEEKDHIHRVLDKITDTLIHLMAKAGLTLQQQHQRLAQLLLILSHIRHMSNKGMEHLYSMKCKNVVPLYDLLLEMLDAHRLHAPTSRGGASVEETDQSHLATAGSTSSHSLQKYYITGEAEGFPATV

[56] = tested on: Bradykinin B1; conditions: Ricerca radioligand binding panel, at 10 µM, stronger effect = higher value
[57] = tested on: Melatonin MT1; conditions: Ricerca radioligand binding panel, at 10 µM, stronger effect = higher value
[58] = target: Glucocorticoid receptor (Homo sapiens) (UniProt P04150); conditions: Ricerca radioligand binding panel, at 10 µM, stronger effect = higher value
Sequence of Glucocorticoid receptor (Homo sapiens) (P04150 whole entry, looked up): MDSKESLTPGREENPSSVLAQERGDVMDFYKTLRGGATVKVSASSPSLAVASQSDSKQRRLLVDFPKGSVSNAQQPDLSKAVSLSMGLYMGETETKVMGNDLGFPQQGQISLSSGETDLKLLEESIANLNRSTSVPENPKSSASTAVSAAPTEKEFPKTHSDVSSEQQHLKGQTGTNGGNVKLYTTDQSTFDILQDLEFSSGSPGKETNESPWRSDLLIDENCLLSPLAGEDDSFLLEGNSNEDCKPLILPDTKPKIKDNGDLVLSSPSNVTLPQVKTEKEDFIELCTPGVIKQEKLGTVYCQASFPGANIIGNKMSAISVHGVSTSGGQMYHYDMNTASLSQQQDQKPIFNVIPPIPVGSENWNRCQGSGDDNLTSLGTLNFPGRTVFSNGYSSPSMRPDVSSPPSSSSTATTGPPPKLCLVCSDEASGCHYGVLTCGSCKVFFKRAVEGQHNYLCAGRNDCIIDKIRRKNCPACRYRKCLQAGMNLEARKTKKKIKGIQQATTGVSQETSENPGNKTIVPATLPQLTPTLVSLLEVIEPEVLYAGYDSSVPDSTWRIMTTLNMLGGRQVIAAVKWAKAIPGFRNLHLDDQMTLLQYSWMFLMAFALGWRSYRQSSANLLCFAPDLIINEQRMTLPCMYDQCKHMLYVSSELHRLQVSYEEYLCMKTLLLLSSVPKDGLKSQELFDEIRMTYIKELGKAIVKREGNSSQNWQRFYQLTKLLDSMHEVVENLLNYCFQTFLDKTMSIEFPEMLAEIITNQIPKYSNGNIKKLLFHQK

[59] = tested on: Adrenergic a1A; conditions: Ricerca radioligand binding panel, at 10 µM, stronger effect = higher value
[60] = tested on: Glutamate, NMDA, Glycine; conditions: Ricerca radioligand binding panel, Glycine site, at 10 µM, stronger effect = higher value
[61] = target: 5-hydroxytryptamine receptor 2B (Homo sapiens) (UniProt P41595); conditions: Ricerca radioligand binding panel, Serotonin (5-Hydroxytryptamine) 5-HT2B, at 10 µM, stronger effect = higher value
Sequence of 5-hydroxytryptamine receptor 2B (Homo sapiens) (P41595 whole entry, looked up): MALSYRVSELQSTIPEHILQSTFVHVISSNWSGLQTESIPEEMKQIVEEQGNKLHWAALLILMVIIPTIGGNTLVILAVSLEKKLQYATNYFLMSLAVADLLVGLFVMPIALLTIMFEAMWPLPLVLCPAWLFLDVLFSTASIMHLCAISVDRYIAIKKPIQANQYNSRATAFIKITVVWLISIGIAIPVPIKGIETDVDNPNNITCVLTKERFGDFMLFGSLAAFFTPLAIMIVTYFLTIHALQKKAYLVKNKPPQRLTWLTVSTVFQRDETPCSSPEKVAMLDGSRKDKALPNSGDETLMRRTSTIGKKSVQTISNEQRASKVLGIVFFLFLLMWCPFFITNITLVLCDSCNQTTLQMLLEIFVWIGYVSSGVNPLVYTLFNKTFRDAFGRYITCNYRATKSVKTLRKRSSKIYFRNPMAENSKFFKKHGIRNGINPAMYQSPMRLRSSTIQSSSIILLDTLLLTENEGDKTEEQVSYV

[62] = target: 5-hydroxytryptamine receptor 1A (Homo sapiens) (UniProt P08908); conditions: Ricerca radioligand binding panel, Serotonin (5-Hydroxytryptamine) 5-HT1A, at 10 µM, stronger effect = higher value
[63] = tested on: Transporter, Norepinephrine (NET); conditions: Ricerca radioligand binding panel, at 10 µM, stronger effect = higher value
[64] = tested on: Calcium Channel L-Type, Benzothiazepine; conditions: Ricerca radioligand binding panel, Benzothiazepine site, at 10 µM, stronger effect = higher value
[65] = target: Neuropeptide Y receptor type 2 (Homo sapiens) (UniProt P49146); conditions: Ricerca radioligand binding panel, Neuropeptide Y Y2, at 10 µM, stronger effect = higher value
Sequence of Neuropeptide Y receptor type 2 (Homo sapiens) (P49146 whole entry, looked up): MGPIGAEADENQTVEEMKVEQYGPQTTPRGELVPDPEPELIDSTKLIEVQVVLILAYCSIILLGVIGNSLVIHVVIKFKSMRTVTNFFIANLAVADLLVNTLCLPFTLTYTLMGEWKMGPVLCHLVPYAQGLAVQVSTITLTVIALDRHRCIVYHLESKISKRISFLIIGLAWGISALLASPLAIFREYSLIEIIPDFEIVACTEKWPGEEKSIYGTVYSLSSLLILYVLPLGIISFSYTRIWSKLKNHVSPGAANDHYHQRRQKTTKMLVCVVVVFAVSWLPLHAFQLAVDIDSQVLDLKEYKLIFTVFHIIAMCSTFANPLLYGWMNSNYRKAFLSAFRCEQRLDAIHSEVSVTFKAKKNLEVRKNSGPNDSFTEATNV

[66] = tested on: Glutamate, NMDA, Agonism; conditions: Ricerca radioligand binding panel, Agonism site, at 10 µM, stronger effect = higher value
[67] = tested on: Tachykinin NK1; conditions: Ricerca radioligand binding panel, at 10 µM, stronger effect = higher value

`COc1ccc(CC2CCN(c3ncnc4sccc34)CC2)cc1` was tested, and the inhibition [1] was 55%, the inhibition [2] was -13% (inactive) and the inhibition [3] was 2% (inactive). The inhibition [4] was 23% (inactive), the inhibition [5] was 31% (inactive) and the inhibition [6] was 10% (inactive). For the same compound, the inhibition [7] was 4% (inactive), the inhibition [8] was 11% (inactive) and the inhibition [9] was 4% (inactive). For the same compound, the inhibition [10] was 10% (inactive), the inhibition [11] was 69% and the inhibition [12] was 6% (inactive). For the same compound, the inhibition [13] was 28% (inactive), the inhibition [14] was -2% (inactive) and the inhibition [15] was 23% (inactive). The inhibition [16] was -8% (inactive), the inhibition [17] was 6% (inactive) and the inhibition [18] was 13% (inactive). The inhibition [19] was -3% (inactive), the inhibition [20] was 8% (inactive) and the inhibition [21] was -6% (inactive). For the same compound, the inhibition [22] was 52%, the inhibition [23] was 51% and the inhibition [24] was 21% (inactive). For the same compound, the inhibition [25] was 58%, the inhibition [26] was 9% (inactive) and the inhibition [27] was 30% (inactive). The inhibition [28] was 9% (inactive), the inhibition [29] was 15% (inactive) and the inhibition [30] was 8% (inactive). For the same compound, the inhibition [31] was 98%, the inhibition [32] was 11% (inactive) and the inhibition [33] was 12% (inactive). For the same compound, the inhibition [34] was -7% (inactive), the inhibition [35] was 19% (inactive) and the inhibition [36] was 27% (inactive). For the same compound, the inhibition [37] was -5% (inactive), the inhibition [38] was -2% (inactive) and the inhibition [39] was 1% (inactive). The inhibition [40] was 3% (inactive), the inhibition [41] was -12% (inactive) and the inhibition [42] was 10% (inactive). The inhibition [43] was 56%, the inhibition [44] was 47% (inactive) and the inhibition [45] was 13% (inactive). For the same compound, the inhibition [46] was 2% (inactive), the inhibition [47] was 44% (inactive) and the inhibition [48] was 28% (inactive). For the same compound, the inhibition [49] was 7% (inactive), the inhibition [50] was 18% (inactive) and the inhibition [51] was 27% (inactive). The inhibition [52] was 11% (inactive), the inhibition [53] was -3% (inactive) and the inhibition [54] was -26% (inactive). The inhibition [55] was 1% (inactive), the inhibition [56] was 4% (inactive) and the inhibition [57] was 68%. The inhibition [58] was 15% (inactive), the inhibition [59] was 28% (inactive) and the inhibition [60] was 1% (inactive). The inhibition [61] was 47% (inactive), the inhibition [62] was 1% (inactive) and the inhibition [63] was 80%. For the same compound, the inhibition [64] was 8% (inactive), the inhibition [65] was 11% (inactive) and the inhibition [66] was 9% (inactive). For the same compound, the inhibition [67] was 6% (inactive).
